Measurements published in patent EP1792623B1, “Use of extracts and constituents of leontopodium as enhancers of cholinergic function” (Leopold-Franzens-Universität Innsbruck, priority 2005, dated 2007).
Structures can show the parent of a compound that is named as a salt.

Legend:
acetylcholinesterase = format: biochemical; conditions: 100 µM, after 60 min, in comparison to medium control, n=4
Experimental: Experiments are carried out applying Ellman's method in a 96-well microplate assay described by Ingkaninan et al, Journal of Chromatography A 827 (2000) p. 6173 and Rhee et al, Journal of Chromatography A 915 (2001) p. 217-223. In addition to buffer A described above, a buffer containing 0.1 M NaCl and 0.02 M MgClx2.6 H2O in buffer A is used for preparing a 3 mM solution of DTNB. For the microplate assay the substrate ATCI is dissolved 15 mM in water (HPLC grade). The enzyme stock solution is diluted with buffer A to get 0.22 U/ml. In the 96-well plates, 25 µl of 15 mM ATCl, 125 µl of 3 mM DTNB, 50 µl of buffer A, and 25 µl of sample (10 mM in MeOH, respectively DMSO (dimethylsulfoxide), diluted ten times with buffer A) are added. […] […] The absorbance of the product (2-nitrobenzoate-5-mercapto thioline) is measured at 405 nm with a Chameleon 5025 (Hidex, Finland) microplate reader 0, 15, 30, 45 and 60 minutes after adding 25 µl of 0.22 U/ml acetylcholinesterase-solution to the reaction mixture. All experiments are performed 4 times (n=4) and the data are statistically processed using the SPSS 11.5 program package. Percentage of inhibition is calculated by comparing the rates for the sample to the blank (10% MeOH, resp. DMSO, in buffer).

[1] = system: C56BL/6N female, 3-month mice; experiment: Object recognition task (scopolamine-induced learning deficit); format: in vivo
Experimental: (§1) Animals: C56BL/6N female, 3-month mice, weighing 20 - 27 g, were used in the present study. The animals were housed in groups of six to ten in cages (40 (L) x 25 (W) x 15 (H) cm) placed in a room at a constant temperature (22±1 °C), 12-light/ 12-dark cycle (07:00-19:00 h), with food and water ad libitum. Experiments were conducted between 09:00 and 16:00h.
(§2) Surgery: Mice were anaesthetized with Pentobarbital sodium (60 mg/kg, i.p.) and placed in a stereotaxic frame. A guide cannula (gauge 25, o.d. 0.52 mm, i.d, 0.26 mm and 7 mm long) was stereotaxically implanted through a hole on the skull into the brain area 0.5 mm higher than the third cerebral ventricle (-0.1 mm posterior, 0.8 mm lateral to bregma, -2.2 mm ventral to the dura) (Franklin KBJ, Paxinos G (1997) The mouse brain in stereotaxic coordinates. Academic Press San Diego). Guide cannula was secured to the skull using two small screws and dental cement. The microinjector (Hamilton gauge 32, o.d. 0.24 mm and i.d. 0.11 mm, 7.5 mm long) protruded 0.5 mm from the tip of the guide cannula to reach the cerebral ventricle. Mice recovered for 5 days before any experimentation was done.
(§3) Drugs: Scopolamine hydrobromide (Sigma, St. Louis, MO, U.S.A.) was dissolved in saline. Isocomene was dissolved in vehicle solution (3 parts DMSO : 7 parts sterile water). The animals were randomly divided into experimental groups and administered a cerebral ventricle injection of saline, scopolamine, isocomene or scopolamine and isocomene in a volume µl during 1 min. The injector was left in place an extra 1 min for drug diffusion after injection. These substances and vehicle were injected 15 min prior to the test.
Experimental design and drug application: Animals were randomly divided into […] experimental groups (6-9 mice per group) as follows: vehicle; scopolamine hybrobromide 20 µg (50 nmol) in 1µl ICV, isocomene 8.16 µg (40 nmol) in 2µl ICV, and scopolamine hybrobromide 20 µg plus isocomene 2 µg ICV. All substances were injected 15 min before the test (T-maze and open field) or before the training trial T1 (object recognition test) through the 7.5 mm long injector connected with i.d. 0.28 mm polyethylene tubing to 5 µl Hamilton syringe.
Apparatus: The test apparatus consisted of a box made of Plexiglas (40 (L) x 25 (W) x 15 (H) cm), which was illuminated by a lamp above the box. In the different parts of the apparatus, the light intensity was equal at 100 lux. The objects to be discriminated were made of plastic or metal, were in the different shapes: cubes and cylinders 1.5-cm high in white or green colour; they could not be displaced by mice. In addition, these objects had no genuine significance for mice and had never been associated with a reinforcement.
Procedure: The object recognition test was performed as described elsewhere (Ennaceur A, Delacour J (1988) A new one-trial test for neurobiological studies of memory in rats. 1: Behavioural data. Behav Brain Res. 31: 47-59). On the day before testing, the animals were allowed to explore the apparatus for 10 min (without objects), while on the testing day, a session of two 10-min trials was given. During the training trial (sample trial) (T1), two identical objects were placed opposite sides 8 cm from the short walls. A mouse was placed in the middle of apparatus and was left to explore these two identical objects in 10 min. After T1, the mouse was put back in its home cage and a 24-hour inter-trial interval was given. […]

[2] = system: C56BL/6N female, 3-month mice; experiment: T-maze continuous alternation task; format: in vivo
Experimental: as §1, §2, §3
Experimental design and drug application: Animals were randomly divided into three experimental groups (6-9 mice per group) as follows: vehicle; scopolamine hybrobromide 20 µg (50 nmol) in 1µl ICV, isocomene 8.16 µg (40 nmol) in 2µl ICV, and scopolamine hybrobromide 20 µg plus isocomene 2 µg ICV. […]

[3] = scopolamine 20 µg ICV alone, T2
[4] = isocomene 8.16 µg ICV in mice given scopolamine 20 µg ICV

## 1-acetyloxy-3-angeloyloxy-(4E,6E)-tetradeca-4,6-dien-8,10,12-triyne and the 4E,6Z isomer
acetylcholinesterase
  inhibition (%): 16.5%

## 15-acetoxy-modhephene
acetylcholinesterase
  inhibition (%): 56.4%

## C=C(CO)[C@H]1Oc2ccc(C(C)=O)cc2[C@H]1O[C@@H]1O[C@H](CO)[C@@H](O)[C@H](O)[C@H]1O (relative stereo) [1-{(2R*,3R*)-2-[1-(hydroxymethyl)vinyl]-3-(β-D-gluco-pyranosyloxy)-2,3-dihydro-1-benzofuran-5-yl}-ethanone]
acetylcholinesterase
  inhibition (%): -0.6%

## CC(=O)OCC1=C[C@]2(C)CCC3[C@H](C)CCC32C1C (relative stereo) [[(1R*,3aS,6R)-1,3a,6-trimethyl-1,3a,4,5,5a,6,7,8-octahydrocyclo-penta[c]pentalen-2-yl]methylacetat]
acetylcholinesterase
  inhibition (%): 61.8%

## C=C(C)C1COc2cc3oc(=O)ccc3c(O)c2O1 (centres unmarked) [5-hydroxy-obliquin]
acetylcholinesterase
  inhibition (%): 1.9%

## C=C(C)C1COc2cc3oc(=O)ccc3c(OC)c2O1 (centres unmarked) [5-methoxy-obliquin]
acetylcholinesterase
  inhibition (%): 3.4%

## CN1[C@@H]2C[C@@H](OC(=O)[C@H](CO)c3ccccc3)C[C@H]1[C@@H]1O[C@@H]12 [Scopolamine, Scopolamine hydrobromide]
[1]; [3]
  discrimination index: zero
  exploration ratio: ~1.0
[1]; scopolamine 20 µg ICV alone, vs vehicle-treated control mice
  exploration time: no significant difference
[2]; scopolamine 20 µg ICV alone
  alternation rate: pronounced decrease in alternation rate

## C/C=C(/C)C(=O)OC[C@H]1[C@@H](Cc2cc(OC)c(OC)c(OC)c2)CO[C@@H]1c1cc(OC)c(OC)c(OC)c1 [[(2S,3R,4R)-4-(3,4,5-trimethoxy-benzyl)-2-(3,4,5-trimethoxy-phenyl)tetrahydrofuran-3-yl]methyl-(2Z)-2-methylbut-2-en-oate]
acetylcholinesterase
  inhibition (%): -6.4%

## C/C=C(/C)C(=O)OC[C@H]1[C@@H](Cc2ccc(OC)c(OC)c2)CO[C@@H]1c1cc(OC)c(OC)c(OC)c1 [[(2S,3R,4R)-4-(3,4-dimethoxy-benzyl)-2-(3,4,5-trimethoxy-phenyl)tetrahydrofuran-3-yl]methyl-(2Z)-2-methylbut-2-en-oate]
acetylcholinesterase
  inhibition (%): 5.0%

## C/C=C(/C)C(=O)OC[C@H]1[C@@H](Cc2ccc(OC)c(OC)c2)CO[C@@H]1c1ccc(OC)c(OC)c1 [[(2S,3R,4R)-4-(3,4-dimethoxy-benzyl)-2-(3,4-dimethoxy-phenyl)tetrahydrofuran-3-yl]methyl-(2Z)-2-methylbut-2-en-oate]
acetylcholinesterase
  inhibition (%): 17.5%

## C=C(C)C1COc2cc3oc(=O)ccc3cc2O1 (centres unmarked) [obliquine]
acetylcholinesterase
  inhibition (%): 18.1%

## C[C@@H]1CC[C@@H]2C(C)(C)C[C@]3(C)CC=C[C@]123 [silphinene]
acetylcholinesterase
  inhibition (%): 3.2%

## CC1=C[C@@H]2[C@@H](CC1)[C@@](C)(O)CC[C@H]2C(C)C [t-Cadinol]
acetylcholinesterase
  inhibition (%): 10.3%

## (4a,7b,8a,9b,15a)-7,9-dihydroxy-15-{[(2Z)-2-methylbut-2-enoyl]oxy} kaur-16-en-19-oate
acetylcholinesterase
  inhibition (%): 53.7%

## bisabolan A
acetylcholinesterase
  inhibition (%): 23.3%

## bisabolan E
acetylcholinesterase
  inhibition (%): 56.9%

## ent-kaur-16-enic-19-acid
acetylcholinesterase
  inhibition (%): 35.6%

## isocomene
acetylcholinesterase
  inhibition (%): 39.6%
[1]; [4]
  discrimination index: potently increased
  exploration ratio: potently increased
[2]; 8.16 µg isocomene ICV alone, mean ± SEM, control mice 52 ± 2.46 %
  alternation rate: 69.96 ± 2.42%
[2]; [4]
  alternation rate: abolished this effect of scopolamine

## β -isocomene
acetylcholinesterase
  inhibition (%): 40.8%
